Key:
Venetoclax = compound: CC1(C)CCC(CN2CCN(c3ccc(C(=O)NS(=O)(=O)c4ccc(NCC5CCOCC5)c([N+](=O)[O-])c4)c(Oc4cnc5[nH]ccc5c4)c3)CC2)=C(c2ccc(Cl)cc2)C1 [Venetoclax]; details: max 1 µM
Outline: (§1)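 Cancer cell lines were seeded in 1536-well plates in 7.5 μl DMEM/F12 or RPMI with 10% FBS, held 24 hours at 37°C and 5% CO2, then dosed for 72 hours (final DMSO typically 0.2%). Viability was read by CellTiter-Glo 2.0 luminescence and scaled between blank-well and DMSO-well means. The single-agent IC50 comes from dose responses fitted to a two-parameter logistic curve with a non-linear mixed effects model.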

Olaparib = compound: O=C(c1cc(Cc2n[nH]c(=O)c3ccccc23)ccc1F)N1CCN(C(=O)C2CC2)CC1 [Olaparib]; details: max 10 µM
Outline: as §1

AZD2811 = compound: CCN(CCO)CCCOc1ccc2c(Nc3cc(CC(=O)Nc4cccc(F)c4)[nH]n3)ncnc2c1 [AZD2811]; details: max 1 µM
Outline: as §1

Prexasertib = compound: COc1cccc(OCCCN)c1-c1cc(Nc2cnc(C#N)cn2)n[nH]1 [Prexasertib]; details: max 1 µM
Outline: as §1

Doxorubicin = compound: COc1cccc2c1C(=O)c1c(O)c3c(c(O)c1C2=O)C[C@@](O)(C(=O)CO)C[C@@H]3O[C@H]1C[C@H](N)[C@H](O)[C@H](C)O1 [Doxorubicin]; details: max 1 µM
Outline: as §1

Selumetinib = compound: Cn1cnc2c(F)c(Nc3ccc(Br)cc3Cl)c(C(=O)NOCCO)cc21 [Selumetinib]; details: max 10 µM
Outline: as §1

AZD5991 = compound: Cc1c2c(nn1C)CSCc1cc(n(C)n1)CSc1cc(c3ccccc3c1)OCCCc1c(C(=O)O)n(C)c3c-2c(Cl)ccc13 [AZD5991]; details: max 1 µM
Outline: as §1

Crizotinib = compound: C[C@@H](Oc1cc(-c2cnn(C3CCNCC3)c2)cnc1N)c1c(Cl)ccc(F)c1Cl [Crizotinib]; details: max 10 µM
Outline: as §1

AZD0156 = compound: CN(C)CCCOc1ccc(-c2ccc3ncc4c(c3c2)n(C2CCOCC2)c(=O)n4C)cn1 [AZD0156]
Outline: as §1

SN-38 = compound: CCc1c2c(nc3ccc(O)cc13)-c1cc3c(c(=O)n1C2)COC(=O)[C@]3(O)CC [SN-38]; details: max 0.3 µM
Outline: as §1

AZD1775 = compound: C=CCn1c(=O)c2cnc(Nc3ccc(N4CCN(C)CC4)cc3)nc2n1-c1cccc(C(C)(C)O)n1 [AZD1775]
Outline: as §1

Gefitinib = compound: COc1cc2ncnc(Nc3ccc(F)c(Cl)c3)c2cc1OCCCN1CCOCC1 [Gefitinib]; details: max 10 µM
Outline: as §1

Palbociclib = compound: CC(=O)c1c(C)c2cnc(Nc3ccc(N4CCNCC4)cn3)nc2n(C2CCCC2)c1=O [Palbociclib]; details: max 10 µM
Outline: as §1

AZD7648 = compound: Cc1cc2ncnn2cc1Nc1ncc2c(n1)n(C1CCOCC1)c(=O)n2C [AZD7648]; details: max 10 µM
Outline: as §1

Capivasertib = compound: C1CN(CCC1(C(=O)N[C@@H](CCO)C2=CC=C(C=C2)Cl)N)C3=NC=NC4=C3C=CN4 [Capivasertib]; details: max 10 µM
Outline: as §1

Savolitinib = compound: C[C@@H](c1ccc2nccn2c1)n1nnc2ncc(-c3cnn(C)c3)nc21 [Savolitinib]; details: max 1 µM
Outline: as §1

AZD4320 = compound: CN(CC[C@H](CSC1=CC=CC=C1)NC2=C(C=C(C=C2)S(=O)(=O)NC(=O)C3=CC=C(C=C3)N4CCC(CC4)[C@H](C5=CC=CC=C5C6=CC=C(C=C6)Cl)O)S(=O)(=O)C(F)(F)F)CCO [AZD4320]; details: max 1 µM
Outline: as §1

Alisertib = compound: COc1cc(Nc2ncc3c(n2)-c2ccc(Cl)cc2C(c2c(F)cccc2OC)=NC3)ccc1C(=O)O [Alisertib]; details: max 10 µM
Outline: as §1

AZD8186 = compound: C[C@@H](Nc1cc(F)cc(F)c1)c1cc(C(=O)N(C)C)cc2c(=O)cc(N3CCOCC3)oc12 [AZD8186]; details: max 3 µM
Outline: as §1

AZD6738 = compound: C[C@@H]1COCCN1C2=NC(=NC(=C2)C3(CC3)[S@](=N)(=O)C)C4=C5C=CNC5=NC=C4 [AZD6738]; details: max 10 µM
Outline: as §1

SG3199 = compound: CC1=CN2[C@@H](C1)C=NC3=CC(=C(C=C3C2=O)OC)OCCCCCOC4=C(C=C5C(=C4)N=C[C@@H]6CC(=CN6C5=O)C)OC [SG3199]; details: max 0.001 µM
Outline: as §1

Dasatinib = compound: CC1=C(C(=CC=C1)Cl)NC(=O)C2=CN=C(S2)NC3=CC(=NC(=N3)C)N4CCN(CC4)CCO [Dasatinib]; details: max 2 µM
Outline: as §1

Lapatinib = compound: CS(=O)(=O)CCNCc1ccc(-c2ccc3ncnc(Nc4ccc(OCc5cccc(F)c5)c(Cl)c4)c3c2)o1 [Lapatinib]; details: max 10 µM
Outline: as §1

Taselisib = compound: Cc1nc(-c2cn3c(n2)-c2ccc(-c4cnn(C(C)(C)C(N)=O)c4)cc2OCC3)n(C(C)C)n1 [Taselisib]; details: max 10 µM
Outline: as §1

AZD1390 = compound: CC(C)n1c(=O)n(C)c2cnc3cc(F)c(-c4ccc(OCCCN5CCCCC5)nc4)cc3c21 [AZD1390]; details: max 0.3 µM
Outline: as §1

AZD5153 = compound: COc1nnc2ccc(N3CCC(c4ccc(OCCN5CCN(C)C(=O)[C@H]5C)cc4)CC3)nn12 [AZD5153]; details: max 1 µM
Outline: as §1

Trametinib = compound: CC(=O)Nc1cccc(-n2c(=O)n(C3CC3)c(=O)c3c(Nc4ccc(I)cc4F)n(C)c(=O)c(C)c32)c1 [Trametinib]; details: max 1 µM
Outline: as §1

MK-2206 = compound: NC1(c2ccc(-c3nc4ccn5c(=O)[nH]nc5c4cc3-c3ccccc3)cc2)CCC1 [MK-2206]; details: max 10 µM
Outline: as §1

Cell Line | IC50, cell viability 72 h (Venetoclax) [nM] | IC50, cell viability 72 h (Olaparib) [nM] | IC50, cell viability 72 h (AZD2811) [nM] | IC50, cell viability 72 h (Prexasertib) [nM] | IC50, cell viability 72 h (Doxorubicin) [nM] | IC50, cell viability 72 h (Selumetinib) [nM] | IC50, cell viability 72 h (AZD5991) [nM] | IC50, cell viability 72 h (Crizotinib) [nM] | IC50, cell viability 72 h (AZD0156; max 3 µM) [nM] | IC50, cell viability 72 h (SN-38) [nM] | IC50, cell viability 72 h (AZD1775; max 3 µM) [nM] | IC50, cell viability 72 h (Gefitinib) [nM] | IC50, cell viability 72 h (Palbociclib) [nM] | IC50, cell viability 72 h (AZD7648) [nM] | IC50, cell viability 72 h (Capivasertib) [nM] | IC50, cell viability 72 h (Savolitinib) [nM] | IC50, cell viability 72 h (AZD4320) [nM] | IC50, cell viability 72 h (Alisertib) [nM] | IC50, cell viability 72 h (AZD8186) [nM] | IC50, cell viability 72 h (AZD6738) [nM] | IC50, cell viability 72 h (SG3199) [nM] | IC50, cell viability 72 h (Dasatinib) [nM] | IC50, cell viability 72 h (Lapatinib) [nM] | IC50, cell viability 72 h (Taselisib) [nM] | IC50, cell viability 72 h (AZD1390) [nM] | IC50, cell viability 72 h (AZD5153) [nM] | IC50, cell viability 72 h (Trametinib) [nM] | IC50, cell viability 72 h (MK-2206) [nM] | IC50, cell viability 72 h (AZD0156; max 1 µM) [nM] | IC50, cell viability 72 h (AZD1775; max 1 µM) [nM]
MES-SA (Other Solid Carcinomas) | > 1000 | > 10000 | > 1000 | 80.1 | 268 | > 10000 | > 1000 | > 10000 | > 3000 | 28.2 | 707 | > 10000 | > 10000 | > 10000 | > 10000 | > 1000 | > 1000 | 856 | > 3000 | > 10000 | > 1 | > 2000 | > 10000 | 1180 | > 300 | > 1000 | > 1000 | – | – | –
NCI-H1688 (Small Cell Lung Carcinoma) | > 1000 | > 10000 | > 1000 | 533 | > 1000 | > 10000 | > 1000 | > 10000 | > 3000 | > 300 | 2540 | > 10000 | > 10000 | > 10000 | > 10000 | > 1000 | > 1000 | > 10000 | > 3000 | > 10000 | > 1 | > 2000 | > 10000 | 8310 | > 300 | > 1000 | > 1000 | > 10000 | – | –
PA-TU-8902 (Pancreatic Carcinoma) | > 1000 | > 10000 | > 1000 | 693 | > 1000 | > 10000 | > 1000 | > 10000 | > 3000 | > 300 | > 3000 | > 10000 | > 10000 | > 10000 | > 10000 | > 1000 | > 1000 | > 10000 | > 3000 | > 10000 | > 1 | > 2000 | > 10000 | 3550 | > 300 | > 1000 | > 1000 | > 10000 | – | –
RCC10RGB (Kidney Carcinoma) | > 1000 | > 10000 | > 1000 | 851 | > 1000 | > 10000 | > 1000 | > 10000 | > 3000 | 101 | 2620 | 7990 | > 10000 | > 10000 | > 10000 | > 1000 | > 1000 | 3460 | 1010 | > 10000 | > 1 | 435 | > 10000 | 3250 | > 300 | > 1000 | 753 | – | – | –
SKN-3 (Head and Neck Carcinoma) | > 1000 | > 10000 | > 1000 | 380 | > 1000 | > 10000 | > 1000 | > 10000 | > 3000 | 251 | 1530 | > 10000 | > 10000 | > 10000 | > 10000 | > 1000 | > 1000 | > 10000 | > 3000 | > 10000 | > 1 | > 2000 | > 10000 | 9180 | > 300 | > 1000 | > 1000 | > 10000 | – | –
SNU-61 (Colorectal Carcinoma) | > 1000 | > 10000 | > 1000 | > 1000 | > 1000 | > 10000 | > 1000 | > 10000 | – | > 300 | – | > 10000 | > 10000 | > 10000 | > 10000 | > 1000 | > 1000 | > 10000 | > 3000 | > 10000 | > 1 | > 2000 | > 10000 | > 10000 | > 300 | > 1000 | 529 | – | > 1000 | > 1000
TYK-nu (Ovarian Carcinoma) | > 1000 | > 10000 | > 1000 | 57.2 | > 1000 | 4360 | > 1000 | > 10000 | > 3000 | 10.8 | 763 | > 10000 | > 10000 | > 10000 | > 10000 | > 1000 | > 1000 | > 10000 | > 3000 | 5370 | > 1 | > 2000 | > 10000 | > 10000 | > 300 | 280 | 301 | > 10000 | – | –
U-118-MG (Low Grade Glioma) | > 1000 | > 10000 | > 1000 | 188 | > 1000 | > 10000 | > 1000 | > 10000 | > 3000 | 14.1 | 2740 | > 10000 | > 10000 | > 10000 | 8880 | > 1000 | > 1000 | > 10000 | > 3000 | > 10000 | > 1 | > 2000 | > 10000 | 6100 | > 300 | > 1000 | > 1000 | – | – | –

— the supplement of paper PMC11061612
